One data set relates to Leishmania major. Put plainly: Concentration required to reduce incorporation of [3H]TdR in drug-treated cultures of intracellular Leishmania major to 50% of controls. The format is functional, organism-based.
The next data set deals with Jurkat. Put plainly: Concentration required to reduce the growth of human Jurkat cells to 50% of control cultures. The format is functional, cell-based.
The nature of data set [1]: relative lipophilicity determined where possible by computation by the fragment constant method. The note with it: octanol/water. In kind it is physicochemical.
Data set [2] in a line: Lipophilicity index (substitution method). The format is physicochemical. The note with it: octanol/water.
A further data set deals with Trypanosoma cruzi. Put plainly: Concentration required to reduce the number of macrophages infected with Trypanosoma cruzi amastigotes to 50% of untreated controls. In kind it is functional. The note with it: read-out: ED50 (the source's name).
A further data set deals with Leishmania donovani. Put plainly: Concentration required to reduce the number of macrophages infected with Leishmania donovani amastigotes to 50% of untreated controls. The note with it: read-out: ED50 (the source's name). The format is functional.
For another data set, the system named is Trypanosoma brucei. Put plainly: Concentration required to inhibit the growth of extracellular Trypanosoma brucei trypomastigotes to 50% of untreated controls. In kind it is functional. The note with it: read-out: ED50 (the source's name).

For `CNc1ccc(Nc2c3ccccc3nc3ccccc23)cc1OC(C)C`, the IC50 was 1300 nM with Leishmania major and 8000 nM in the data set on Jurkat. The same compound had a Liphophilicity in data set [1] of 0.38 sigma pi.

Take `CN(C)Cc1ccc(Nc2c3ccc(N)cc3nc3cc(N)ccc23)cc1`: the IC50 came out at 5000 nM in the data set with Leishmania major and 12000 nM with Jurkat. This compound showed an Index in data set [2] of -2.61.

For `Nc1ccc(Nc2c3ccccc3nc3ccccc23)cn1`, the IC50 in the data set with Leishmania major amounted to 3900 nM; in the data set on Jurkat, 3600 nM. The Index in data set [2] is on record as -2.74.

Take `c1ccc2c(Nc3ccc(NC4CCCCC4)cc3)c3ccccc3nc2c1`: the IC50 in the data set with Leishmania major is 550 nM; in the data set with Jurkat it was greater than 15000 nM. Further, in data set [2], the Index came to 2.

On to `CCN(CC)CCCNc1ccc(Nc2c3ccccc3nc3ccccc23)cc1`, for which the results for the IC50 in the data set on Leishmania major and with Jurkat were 200 nM and 1300 nM, respectively. The same compound displayed an Index in data set [2] of 3.29.

As for `CCCCCCOc1ccc(Nc2c3ccccc3nc3ccccc23)cc1`, the values for the IC50 in the data set with Leishmania major and in the data set with Jurkat were 1000 nM and 5000 nM, respectively. The Index in data set [2] turned out to be 2.87.

Turning to `NCCNCCc1ccc(Nc2c3ccccc3nc3ccccc23)cc1`, the IC50 in the data set with Leishmania major was 700 nM; with Jurkat it was 4000 nM.

On to `CCN(CC)CCCc1ccc(Nc2c3ccccc3nc3ccccc23)cc1`, for which the IC50 in the data set on Leishmania major is 300 nM; in the data set with Jurkat, less than 1000 nM. The compound also displayed an Index in data set [2] of 4.22.

With `CCN(CC)c1ccc(Nc2c3ccccc3nc3ccccc23)cc1`, the IC50 with Leishmania major was determined as 400 nM; in the data set with Jurkat, 1000 nM. Moreover, the EC50 in the data set on Trypanosoma cruzi is greater than 3000 nM; in the data set with Leishmania donovani, 760 nM; in the data set with Trypanosoma brucei, greater than 300 nM. Also, the Index in data set [2] amounted to 1.18.

`NCCCCCCNS(=O)(=O)c1ccc(N=c2c3ccccc3[nH]c3ccccc23)cc1`: the figures for the IC50 with Leishmania major and with Jurkat were greater than 3000 nM and greater than 20000 nM, respectively.

Turning to `CCCCCCNc1ccc(Nc2c3ccc(Cl)cc3nc3ccc(OC)cc23)cc1`, the figures for the IC50 with Leishmania major and with Jurkat were 200 nM and 4000 nM, respectively. The figures for the EC50 with Trypanosoma cruzi, in the data set with Leishmania donovani and with Trypanosoma brucei were greater than 10000 nM, 4000 nM and greater than 300 nM, respectively. In data set [2], this compound had an Index of 3.07.

Turning to `CCCCCCNc1ccc(Nc2c3ccc(Cl)cc3nc3ccc(OC)cc23)cc1OC`, the figures for the IC50 in the data set on Leishmania major and in the data set on Jurkat were 500 nM and greater than 20000 nM, respectively. Moreover, the EC50 with Trypanosoma cruzi amounted to 9300 nM; in the data set with Leishmania donovani, 3200 nM; with Trypanosoma brucei it was 600 nM. In data set [2], the Index came out at 3.71.

On to `Nc1ccc2c(Nc3ccc(CN4CCCC4)cc3)c3ccc(N)cc3nc2c1`, for which the values for the IC50 in the data set on Leishmania major and with Jurkat were greater than 3000 nM and greater than 20000 nM, respectively.

Consider `COc1cc(NS(C)(=O)=O)ccc1Nc1c2ccc(N(C)C)cc2nc2cc(N(C)C)ccc12`, for which the IC50 was greater than 3000 nM in the data set with Leishmania major and 3000 nM with Jurkat. This compound also yielded an Index in data set [2] of -0.84.

With `CNc1ccc(Nc2c3ccccc3nc3ccccc23)cc1`, in the data set on Leishmania major, it took 1500 nM to reach half-maximal inhibition (IC50). In data set [2], this compound returned an Index of -0.47.

The compound `CN(C)c1ccc2c(Nc3ccccc3)c3ccc(N(C)C)cc3nc2c1` registered an IC50 with Leishmania major of 30 nM. For the same compound, the Index in data set [2] is recorded as 0.36.

Consider `CCCCCCN(C)c1ccc(Nc2c3ccc(Cl)cc3nc3ccc(OC)cc23)cc1`, for which the IC50 was 1800 nM in the data set with Leishmania major and greater than 20000 nM with Jurkat. The EC50 with Trypanosoma cruzi is greater than 3000 nM; in the data set on Leishmania donovani, greater than 3000 nM; with Trypanosoma brucei, 4300 nM. This compound also had an Index in data set [2] of 3.73.

For `CN(C)c1ccc(Nc2c3ccccc3nc3ccccc23)cc1`, the IC50 in the data set with Leishmania major is 900 nM; in the data set with Jurkat it was 1000 nM. In addition, the EC50 in the data set on Trypanosoma cruzi is greater than 3000 nM; in the data set on Leishmania donovani it was 3600 nM; in the data set on Trypanosoma brucei, 1300 nM. Besides, in data set [2], the Index is reported as 0.18.

As to `c1ccc2c(Nc3ccc(NC4CCCC4)cc3)c3ccccc3nc2c1`, the IC50 worked out at 450 nM in the data set with Leishmania major and 5000 nM with Jurkat. Also, the Index in data set [2] was 1.8.

For the compound `CCCCCCN(C)c1ccc(Nc2c3ccc(N(C)C)cc3nc3cc(N(C)C)ccc23)cc1`, the IC50 in the data set with Leishmania major is 70 nM; with Jurkat, 1750 nM. Besides, the figures for the EC50 in the data set with Trypanosoma cruzi, in the data set on Leishmania donovani and with Trypanosoma brucei were 120 nM, 30 nM and greater than 300 nM, respectively. In data set [2], this compound came in with an Index of 3.4.

On to `c1ccc(Nc2c3ccccc3nc3ccccc23)cc1`, for which the IC50 in the data set on Leishmania major and in the data set on Jurkat was 2700 nM in each case. The compound further displayed an Index in data set [2] of 0.

With `COc1cc(NS(C)(=O)=O)ccc1Nc1c2ccccc2nc2ccccc12` [AMSACRINE], the IC50 with Leishmania major was found to be 1500 nM; in the data set with Jurkat, 200 nM. The Index in data set [2] is given as -1.2.

In the case of `CCCN(CCC)c1ccc(Nc2c3ccccc3nc3ccccc23)cc1`, the results for the IC50 in the data set with Leishmania major and in the data set with Jurkat were 200 nM and 1500 nM, respectively. Also, the EC50 was 2500 nM with Trypanosoma cruzi, greater than 10000 nM with Leishmania donovani and 370 nM in the data set with Trypanosoma brucei. The compound further came in with an Index in data set [2] of 2.24.

Take `CCCCCCN(C)c1ccc(Nc2c3ccccc3nc3ccccc23)cc1`: the results for the IC50 in the data set with Leishmania major and with Jurkat were 300 nM and 3000 nM, respectively. In addition, the EC50 was greater than 1000 nM in the data set with Trypanosoma cruzi, 1200 nM in the data set with Leishmania donovani and 330 nM in the data set on Trypanosoma brucei. Besides, in data set [2], the Index was found to be 3.04.

In the case of `COc1cc(NS(C)(=O)=O)ccc1Nc1c2ccc(N)cc2nc2cc(N)ccc12`, in the data set on Leishmania major, the IC50 is greater than 3000 nM. In addition, the Index in data set [2] is -3.66.

`CCCCCCN(CCCCCC)c1ccc(Nc2c3ccccc3nc3ccccc23)cc1`: the IC50 worked out at 240 nM in the data set on Leishmania major and 6500 nM with Jurkat. Besides, the figures for the EC50 in the data set with Trypanosoma cruzi, with Leishmania donovani and in the data set on Trypanosoma brucei were greater than 3000 nM, 1350 nM and greater than 300 nM, respectively. Also, the Index in data set [2] came to 6.2.

Turning to `CNc1ccc(Nc2c3ccccc3nc3ccccc23)cc1OC`, the IC50 came to 3600 nM with Leishmania major and 11000 nM in the data set with Jurkat. The same compound had an Index in data set [2] of -0.49.

In the case of `CCCCCNCc1ccc(Nc2c3ccccc3nc3ccccc23)cc1`, the values for the IC50 in the data set on Leishmania major and in the data set with Jurkat were 2000 nM and 1530 nM, respectively.

`NS(=O)(=O)c1ccc(Nc2c3ccccc3nc3ccccc23)cc1`: the IC50 in the data set on Leishmania major is greater than 3000 nM; in the data set with Jurkat, 5000 nM. Further, the Index in data set [2] is -1.82.

Consider `CCN(CC)CCNc1ccc(Nc2c3ccccc3nc3ccccc23)cc1OC`, for which the IC50 with Leishmania major was found to be 1600 nM; in the data set on Jurkat, 1500 nM. Besides, the Index in data set [2] came out at 3.27.

In the case of `CCCCCCNc1ccc(Nc2c3ccc(N(C)C)cc3nc3cc(N(C)C)ccc23)cc1`, the results for the IC50 with Leishmania major and in the data set with Jurkat were 160 nM and 1750 nM, respectively. Besides, the EC50 was greater than 3000 nM in the data set on Trypanosoma cruzi, 250 nM in the data set with Leishmania donovani and 200 nM in the data set on Trypanosoma brucei. The compound also came in with an Index in data set [2] of 2.74.

`CN(C)Cc1ccc(Nc2c3ccc(Cl)cc3nc3cc(Cl)ccc23)cc1` registered an IC50 in the data set on Leishmania major of 2000 nM. In data set [2], the Index amounted to 1.27.

Turning to `CCCCCCCc1ccc(Nc2c3ccccc3nc3ccccc23)cc1`, the figures for the IC50 in the data set with Leishmania major and in the data set with Jurkat were 800 nM and 13000 nM, respectively. The Index in data set [2] is on record as 3.99.

Turning to `c1ccc2c(Nc3ccc(CN4CCCC4)cc3)c3ccccc3nc2c1`, the IC50 in the data set on Leishmania major was found to be 200 nM; with Jurkat it was 2000 nM.

Turning to `CCCCCN(CCCCC)c1ccc(Nc2c3ccccc3nc3ccccc23)cc1`, the IC50 in the data set on Leishmania major came out at 160 nM; in the data set with Jurkat it was 2300 nM. The EC50 with Trypanosoma cruzi was greater than 300 nM; in the data set with Leishmania donovani, greater than 90000 nM; in the data set on Trypanosoma brucei, 200 nM. The same compound gave an Index in data set [2] of 4.88.

In the case of `CCN(C)c1ccc(Nc2c3ccccc3nc3ccccc23)cc1`, the IC50 with Leishmania major was 1000 nM; in the data set with Jurkat it was 4000 nM. The EC50 in the data set with Trypanosoma cruzi was determined as 3300 nM; in the data set with Leishmania donovani it was 4400 nM; in the data set on Trypanosoma brucei it was 880 nM. This compound yielded an Index in data set [2] of 0.68.

Take `CN(C)Cc1ccc(Nc2c3ccccc3nc3ccccc23)cc1`: in the data set with Leishmania major, half-maximal inhibition (IC50) required 1000 nM. For the same compound, the Index in data set [2] was -0.15.

As for `CCN(C)c1ccc(Nc2c3ccccc3nc3ccccc23)cc1OC`, the figures for the IC50 in the data set on Leishmania major and in the data set on Jurkat were greater than 3000 nM and 16500 nM, respectively. The same compound showed an Index in data set [2] of 0.66.

In the case of `CCCCN(CCCC)c1ccc(Nc2c3ccccc3nc3ccccc23)cc1`, the values for the IC50 in the data set with Leishmania major and in the data set on Jurkat were 350 nM and 2000 nM, respectively. The EC50 in the data set on Trypanosoma cruzi is greater than 10000 nM; in the data set on Leishmania donovani it was greater than 10000 nM; with Trypanosoma brucei, 1460 nM. In data set [2], this compound displayed an Index of 3.56.

As for `Nc1ccc2c(=Nc3ccc(S(N)(=O)=O)cc3)c3ccc(N)cc3[nH]c2c1`, the IC50 in the data set with Leishmania major is greater than 3000 nM. In addition, the Index in data set [2] is -4.28.

For the compound `CCCCCCNc1ccc(Nc2c3ccccc3nc3ccccc23)cc1`, the IC50 with Leishmania major worked out at 550 nM; in the data set with Jurkat it was 17000 nM. Further, the EC50 is 2200 nM in the data set on Trypanosoma cruzi, 12300 nM with Leishmania donovani and 3900 nM in the data set on Trypanosoma brucei. Besides, the Index in data set [2] was found to be 2.38.

Take `CCCCCCN(C)c1ccc(Nc2c3ccccc3nc3ccccc23)cc1OC`: the results for the IC50 in the data set with Leishmania major and with Jurkat were 600 nM and 6500 nM, respectively. Besides, the EC50 in the data set on Trypanosoma cruzi is greater than 300 nM; in the data set with Leishmania donovani it was 1900 nM; in the data set on Trypanosoma brucei, 1800 nM. In data set [2], this compound gave an Index of 3.02.

Consider `CCCCCCNc1ccc(Nc2c3ccccc3nc3ccccc23)cc1OC`, for which the IC50 was 400 nM in the data set with Leishmania major and 3500 nM in the data set on Jurkat. Besides, the EC50 amounted to 1800 nM in the data set on Trypanosoma cruzi, 1200 nM in the data set with Leishmania donovani and 650 nM with Trypanosoma brucei. The compound further came in with an Index in data set [2] of 2.36.

In turn, `Nc1ccc(Nc2c3ccccc3nc3ccccc23)cc1` came in with an IC50 in the data set on Leishmania major of 2100 nM. Besides, the Index in data set [2] was -1.23.

The record behind these values is ChEMBL document CHEMBL1130117, “Structure-activity relationships for the antileishmanial and antitrypanosomal activities of 1'-substituted 9-anilinoacridines” (J Med Chem, 1997).
